{"source": "patent US12655116B2", "about": "“Substituted isophthalic acid diamides” (Bayer Aktiengesellschaft, priority 2020, dated 2026)", "key": {"VIOTR [1]": {"tested_on": "VIOTR", "assay": "Post-emergence herbicidal action against VIOTR", "format": "in vivo, Viola tricolor", "settings": "20 g/ha", "method_in_brief": "(§1)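 Greenhouse plants in sandy loam were sprayed at the one-leaf stage, 2 to 3 weeks after sowing, with WP or EC formulations as aqueous suspension or emulsion (600 to 800 l/ha water, 0.2% wetting agent). Visual damage was scored about 3 weeks later versus untreated controls, 0% = like control, 100% = dead.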"}, "VIOTR [2]": {"tested_on": "VIOTR", "assay": "Pre-emergence herbicidal action against VIOTR", "format": "in vivo, Viola tricolor", "method_in_brief": "(§2)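 Pre-emergence soil-surface spray of formulated compound (WP or EC; 600 to 800 l/ha; 0.2% wetting agent) over seeds sown in sandy loam. After 3 weeks under greenhouse conditions, damage is estimated visually in percent against untreated plants.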"}, "ALOMY [3]": {"tested_on": "ALOMY", "assay": "Pre-emergence herbicidal action against ALOMY", "format": "in vivo, Alopecurus myosuroides", "settings": "80 g/ha, pre-emergence, scored visually after 3 weeks vs untreated controls (100% = plants have died, 0% = like control plants)", "method_in_brief": "as §2"}, "PHBPU [4]": {"tested_on": "PHBPU", "assay": "Pre-emergence herbicidal action against PHBPU", "format": "in vivo, Pharbitis purpurea", "settings": "dosage 80 g/ha", "method_in_brief": "as §2"}, "PHBPU [5]": {"tested_on": "PHBPU", "assay": "Post-emergence herbicidal action against PHBPU", "format": "in vivo, Pharbitis purpurea", "method_in_brief": "as §1"}, "ECHCG [6]": {"tested_on": "ECHCG", "assay": "Pre-emergence herbicidal action against ECHCG", "format": "in vivo, Echinochloa crus-galli", "settings": "80 g/ha", "method_in_brief": "as §2"}, "ABUTH [7]": {"tested_on": "ABUTH", "assay": "Post-emergence herbicidal action against ABUTH", "format": "in vivo, Abutilon theophrasti", "settings": "visual assessment about 3 weeks after treatment vs untreated controls", "method_in_brief": "as §1"}, "MATIN [8]": {"tested_on": "MATIN", "assay": "Post-emergence herbicidal action against MATIN", "format": "in vivo, Matricaria inodora", "method_in_brief": "as §1"}, "VERPE [9]": {"tested_on": "VERPE", "assay": "Post-emergence herbicidal action against VERPE", "format": "in vivo, Veronica persica", "method_in_brief": "as §1"}, "ECHCG [10]": {"tested_on": "ECHCG", "assay": "Post-emergence herbicidal action against ECHCG", "format": "in vivo, Echinochloa crus-galli", "method_in_brief": "as §1"}, "SETVI [11]": {"tested_on": "SETVI", "assay": "Pre-emergence herbicidal action against SETVI", "format": "in vivo, Setaria viridis", "method_in_brief": "as §2"}, "VERPE [12]": {"tested_on": "VERPE", "assay": "Pre-emergence herbicidal action against VERPE", "format": "in vivo, Veronica persica", "method_in_brief": "as §2"}, "AMARE [13]": {"tested_on": "AMARE", "assay": "Post-emergence herbicidal action against AMARE", "format": "in vivo, Amaranthus retroflexus", "settings": "20 g/ha, visual assessment about 3 weeks after treatment, 100% = plants have died, 0% = like control plants", "method_in_brief": "as §1"}, "AMARE [14]": {"tested_on": "AMARE", "assay": "Pre-emergence herbicidal action against AMARE", "format": "in vivo, Amaranthus retroflexus", "method_in_brief": "as §2"}, "DIGSA [15]": {"tested_on": "DIGSA", "assay": "Post-emergence herbicidal action against DIGSA", "format": "in vivo, Digitaria sanguinalis", "settings": "for Post-emergence action against DIGSA: 20 g/ha", "method_in_brief": "as §1"}, "ABUTH [16]": {"tested_on": "ABUTH", "assay": "Pre-emergence herbicidal action against ABUTH", "format": "in vivo, Abutilon theophrasti", "settings": "for Pre-emergence action against ABUTH (herbicidal activity): 80 g/ha, scored visually after 3 weeks vs untreated controls (100% = plants have died, 0% = like control plants); for Pre-emergence action against ABUTH (herbicidal activity in percent): dosage 20 g/ha, scored visually after 3 weeks vs untreated controls, 100% = plants have died, 0% = like control plants", "method_in_brief": "as §2"}, "DIGSA [17]": {"tested_on": "DIGSA", "assay": "Pre-emergence herbicidal action against DIGSA", "format": "in vivo, Digitaria sanguinalis", "method_in_brief": "as §2"}, "SETVI [18]": {"tested_on": "SETVI", "assay": "Post-emergence herbicidal action against SETVI", "format": "in vivo, Setaria viridis", "settings": "dosage 20 g/ha", "method_in_brief": "as §1"}, "MATIN [19]": {"tested_on": "MATIN", "assay": "Pre-emergence herbicidal action against MATIN", "format": "in vivo, Matricaria inodora", "method_in_brief": "as §2"}, "ALOMY [20]": {"tested_on": "ALOMY", "assay": "Post-emergence herbicidal action against ALOMY", "format": "in vivo, Alopecurus myosuroides", "settings": "dosage 20 g/ha, visual assessment about 3 weeks after treatment vs untreated controls", "method_in_brief": "as §1"}, "AVEFA": {"tested_on": "AVEFA", "assay": "Pre-emergence herbicidal action against AVEFA", "format": "in vivo, Avena fatua", "settings": "80 g/ha, pre-emergence", "method_in_brief": "as §2"}, "[21]": {"settings": "20 g/ha, scored visually after 3 weeks vs untreated controls, 100% = plants have died, 0% = like control plants"}, "[22]": {"settings": "80 g/ha, scored visually after 3 weeks vs untreated controls (100% = plants have died, 0% = like control plants)"}}}
{"smiles": "CCn1nnnc1NC(=O)c1ccc(C(F)(F)F)c(C(=O)NC)c1C1CC1", "note": "[Example 2-286]", "values": [{"measurement": "Post-emergence action against VIOTR in %", "setting": "VIOTR [1]", "value": 80, "unit": "%"}, {"measurement": "Pre-emergence action against VIOTR in %", "setting": "VIOTR [2]; dosage 20 g/ha", "value": 90, "unit": "%"}, {"measurement": "Pre-emergence action against VIOTR in %", "setting": "VIOTR [2]; dosage 80 g/ha", "value": 100, "unit": "%"}, {"measurement": "Pre-emergence action against ALOMY (herbicidal activity)", "setting": "ALOMY [3]", "value": 80, "unit": "%"}, {"measurement": "Pre-emergence action against PHBPU in %", "setting": "PHBPU [4]", "value": 90, "unit": "%"}, {"measurement": "Post-emergence action against PHBPU in %", "setting": "PHBPU [5]; dosage 5 g/ha", "value": 90, "unit": "%"}, {"measurement": "Post-emergence action against PHBPU in %", "setting": "PHBPU [5]; dosage 20 g/ha", "value": 90, "unit": "%"}, {"measurement": "Pre-emergence action against ECHCG in %", "setting": "ECHCG [6]", "value": 90, "unit": "%"}, {"measurement": "Post-emergence action against ABUTH in %", "setting": "ABUTH [7]; dosage 5 g/ha", "value": 90, "unit": "%"}, {"measurement": "Post-emergence action against ABUTH in %", "setting": "ABUTH [7]; dosage 20 g/ha", "value": 90, "unit": "%"}, {"measurement": "Post-emergence action against MATIN in %", "setting": "MATIN [8]; dosage 5 g/ha", "value": 90, "unit": "%"}, {"measurement": "Post-emergence action against MATIN in %", "setting": "MATIN [8]; dosage 20 g/ha", "value": 90, "unit": "%"}, {"measurement": "Post-emergence action against VERPE in %", "setting": "VERPE [9]; 5 g/ha", "value": 80, "unit": "%"}, {"measurement": "Post-emergence action against VERPE in %", "setting": "VERPE [9]; 20 g/ha", "value": 80, "unit": "%"}, {"measurement": "Post-emergence action against ECHCG in %", "setting": "ECHCG [10]; dosage 20 g/ha", "value": 100, "unit": "%"}, {"measurement": "Pre-emergence action against SETVI in %", "setting": "SETVI [11]; dosage 20 g/ha", "value": 80, "unit": "%"}, {"measurement": "Pre-emergence action against SETVI in %", "setting": "SETVI [11]; dosage 80 g/ha", "value": 100, "unit": "%"}, {"measurement": "Pre-emergence action against VERPE in %", "setting": "VERPE [12]; dosage 20 g/ha", "value": 80, "unit": "%"}, {"measurement": "Pre-emergence action against VERPE in %", "setting": "VERPE [12]; dosage 80 g/ha", "value": 100, "unit": "%"}, {"measurement": "Post-emergence action at 20 g/ha against AMARE in %", "setting": "AMARE [13]", "value": 100, "unit": "%"}, {"measurement": "Pre-emergence action against AMARE in %", "setting": "AMARE [14]; [21]", "value": 100, "unit": "%"}, {"measurement": "Pre-emergence action against AMARE in %", "setting": "AMARE [14]; [22]", "value": 100, "unit": "%"}, {"measurement": "Post-emergence action against DIGSA in %", "setting": "DIGSA [15]; 5 g/ha", "value": 90, "unit": "%"}, {"measurement": "Post-emergence action against DIGSA", "setting": "DIGSA [15]", "value": 90, "unit": "%"}, {"measurement": "Pre-emergence action against ABUTH (herbicidal activity)", "setting": "ABUTH [16]", "value": 100, "unit": "%"}, {"measurement": "Pre-emergence action against ABUTH (herbicidal activity in percent)", "setting": "ABUTH [16]", "value": 100, "unit": "%"}, {"measurement": "Pre-emergence action against DIGSA in %", "setting": "DIGSA [17]; dosage 20 g/ha", "value": 100, "unit": "%"}, {"measurement": "Pre-emergence action against DIGSA in %", "setting": "DIGSA [17]; dosage 80 g/ha", "value": 100, "unit": "%"}, {"measurement": "Post-emergence action against SETVI in %", "setting": "SETVI [18]", "value": 80, "unit": "%"}, {"measurement": "Pre-emergence action against MATIN in %", "setting": "MATIN [19]; dosage 20 g/ha", "value": 100, "unit": "%"}, {"measurement": "Pre-emergence action against MATIN in %", "setting": "MATIN [19]; dosage 80 g/ha", "value": 100, "unit": "%"}]}
{"smiles": "Cn1nnnc1NC(=O)c1ccc(C(F)F)c(C(=O)NCC(F)F)c1Br", "note": "[Example 1-230]", "values": [{"measurement": "Pre-emergence action against VIOTR in %", "setting": "VIOTR [2]; dosage 20 g/ha", "value": 100, "unit": "%"}, {"measurement": "Pre-emergence action against VIOTR in %", "setting": "VIOTR [2]; dosage 80 g/ha", "value": 100, "unit": "%"}, {"measurement": "Post-emergence action against ALOMY in %", "setting": "ALOMY [20]", "value": 90, "unit": "%"}, {"measurement": "Pre-emergence action against ALOMY (herbicidal activity)", "setting": "ALOMY [3]", "value": 90, "unit": "%"}, {"measurement": "Pre-emergence action against PHBPU in %", "setting": "PHBPU [4]", "value": 90, "unit": "%"}, {"measurement": "Pre-emergence action against ECHCG in %", "setting": "ECHCG [6]", "value": 90, "unit": "%"}, {"measurement": "Post-emergence action against VERPE in %", "setting": "VERPE [9]; 20 g/ha", "value": 80, "unit": "%"}, {"measurement": "Post-emergence action against ECHCG in %", "setting": "ECHCG [10]; dosage 5 g/ha", "value": 80, "unit": "%"}, {"measurement": "Post-emergence action against ECHCG in %", "setting": "ECHCG [10]; dosage 20 g/ha", "value": 80, "unit": "%"}, {"measurement": "Pre-emergence action against SETVI in %", "setting": "SETVI [11]; dosage 20 g/ha", "value": 90, "unit": "%"}, {"measurement": "Pre-emergence action against SETVI in %", "setting": "SETVI [11]; dosage 80 g/ha", "value": 100, "unit": "%"}, {"measurement": "Pre-emergence action against VERPE in %", "setting": "VERPE [12]; dosage 80 g/ha", "value": 100, "unit": "%"}, {"measurement": "Post-emergence action at 20 g/ha against AMARE in %", "setting": "AMARE [13]", "value": 100, "unit": "%"}, {"measurement": "Pre-emergence action against AMARE in %", "setting": "AMARE [14]; [21]", "value": 100, "unit": "%"}, {"measurement": "Pre-emergence action against AMARE in %", "setting": "AMARE [14]; [22]", "value": 100, "unit": "%"}, {"measurement": "Post-emergence action against DIGSA", "setting": "DIGSA [15]", "value": 90, "unit": "%"}, {"measurement": "Pre-emergence action against ABUTH (herbicidal activity)", "setting": "ABUTH [16]", "value": 100, "unit": "%"}, {"measurement": "Pre-emergence action against ABUTH (herbicidal activity in percent)", "setting": "ABUTH [16]", "value": 90, "unit": "%"}, {"measurement": "Pre-emergence action against DIGSA in %", "setting": "DIGSA [17]; dosage 20 g/ha", "value": 90, "unit": "%"}, {"measurement": "Pre-emergence action against DIGSA in %", "setting": "DIGSA [17]; dosage 80 g/ha", "value": 100, "unit": "%"}, {"measurement": "Pre-emergence action against AVEFA in %", "setting": "AVEFA", "value": 90, "unit": "%"}, {"measurement": "Pre-emergence action against MATIN in %", "setting": "MATIN [19]; dosage 20 g/ha", "value": 90, "unit": "%"}, {"measurement": "Pre-emergence action against MATIN in %", "setting": "MATIN [19]; dosage 80 g/ha", "value": 100, "unit": "%"}]}
